Reference: the NIST ThermoML archive (doi:10.1016/j.tca.2015.02.014)

Tests used:
[1] = mn = molality of the nth substance listed, in mol/kg; conditions: 100 kPa, Liquid; for viscosity: Capillary tube (Ostwald / Ubbelohde) method; for speed of sound: Frequency=3 MHz, Sing-around technique in a fixed-path interferometer; for mass density: Vibrating tube method
[2] = 100 kPa, Liquid, Capillary tube (Ostwald / Ubbelohde) method

NCC(=O)O [2-aminoacetic acid] + O
[1], m1 = 0.1
Conditions | mass density [kg/m3] | speed of sound [m/s] | viscosity [mPa·s]
293.15 K | 1001.51 | 1488.2 | 1.016
298.15 K | 1000.32 | 1502.2 | 0.9031
303.15 K | – | 1514.4 | 0.808
308.15 K | – | 1525 | 0.7271
313.15 K | 995.401 | 1533.9 | 0.6645
318.15 K | – | 1541.3 | 0.5988

N[C@@H](Cc1c[nH]cn1)C(=O)O [L-histidine] + O
[1], m1 = 0.1
Conditions | mass density [kg/m3] | speed of sound [m/s] | viscosity [mPa·s]
293.15 K | 1003.99 | 1491.8 | 1.052
298.15 K | 1002.8 | 1505.3 | 0.928
303.15 K | 1001.33 | 1517.4 | 0.8289
308.15 K | 999.656 | 1527.6 | 0.7447
313.15 K | 997.795 | 1536.3 | 0.6783
318.15 K | 995.765 | 1543.8 | 0.5915

CC(C)C[C@H](N)C(=O)O [L-leucine] + O
[1], m1 = 0.1
Conditions | mass density [kg/m3] | speed of sound [m/s] | viscosity [mPa·s]
293.15 K | 1000.79 | 1494.9 | 1.06
298.15 K | 999.575 | 1508.3 | 0.9398
303.15 K | 998.115 | 1520.2 | 0.8362
308.15 K | 996.485 | 1530.3 | 0.7509
313.15 K | 994.559 | 1538.8 | 0.6801
318.15 K | 992.305 | 1545.9 | 0.6014

CSCC[C@H](N)C(=O)O [L-methionine] + O
[1], m1 = 0.1
Conditions | mass density [kg/m3] | speed of sound [m/s] | viscosity [mPa·s]
293.15 K | 1002.78 | 1493 | 1.034
298.15 K | 1001.58 | 1506.7 | 0.92
303.15 K | 1000.16 | 1518.5 | 0.8289
308.15 K | 998.461 | 1528.7 | 0.7461
313.15 K | 996.591 | 1537 | 0.6799
318.15 K | 994.572 | 1544.2 | 0.6105

O [water]
[2]
Conditions | viscosity [mPa·s]
293.15 K | 1.002
298.15 K | 0.8903
303.15 K | 0.7973
308.15 K | 0.719
313.15 K | 0.6526
318.15 K | 0.596

O [water] + C[C@H](CCC(=O)[O-])[C@H]1CC[C@H]2[C@@H]3CC[C@@H]4C[C@H](O)CC[C@]4(C)[C@H]3C[C@H](O)[C@]12C.[Na+]
[1], m2 = 0
Conditions | mass density [kg/m3] | speed of sound [m/s] | viscosity [mPa·s]
293.15 K | – | – | 1.002
298.15 K | – | – | 0.8903
303.15 K | – | – | 0.7973
308.15 K | – | – | 0.719
313.15 K | – | 1529.2 | 0.6526
318.15 K | 990.256 | 1536.5 | 0.596

O [water] + C[C@H](CCC(=O)[O-])[C@H]1CC[C@H]2[C@@H]3[C@H](O)C[C@@H]4C[C@H](O)CC[C@]4(C)[C@H]3C[C@H](O)[C@]12C.[Na+]
[1], m2 = 0
Conditions | mass density [kg/m3] | speed of sound [m/s] | viscosity [mPa·s]
293.15 K | – | – | 1.002
298.15 K | – | – | 0.8903
303.15 K | – | – | 0.7973
308.15 K | – | – | 0.719
313.15 K | – | 1529.2 | 0.6526
318.15 K | 990.256 | 1536.5 | 0.596
